Laboratory results published in patent publication US12391679B2, “Benzamide-substituted bicyclic imidazo- and pyrazolo-fused -pyridine, -pyrimide, and -pyridazine compounds for treatment of inflammatory diseases” (ONCO3R Therapeutics BV, priority 2019, dated 2025).

Tests used:
B10.RIII mice, IL-23 EEV = assay: Murine model of psoriatic arthritis induced by overexpression of IL-23; assay type: in vivo; details: mouse, IL-23 overexpression
From the text: Mouse IL-23 enhanced episomal expression vector (EEV) was obtained from System Biosciences (Cat #EEV651A-1). Mouse IL-23 Quantikine ELISA Kits were obtained from R&D Systems (Cat #M2300). ProSense® 680 and OsteoSense® 750EX were obtained from PerkinElmer (Cat #NEV10003 and NEV10053EX). RNAlater® was obtained from Ambion (Cat #AM7021). Imalgene® 1000 (Merial) and Rompun® 2% (Bayer) were obtained from Centravet (Cat #IMA004-6827812 and ROM001-6835444).
B10.RIII mice (male, 8-week old) were obtained from Charles River (Écully, France). Mice were kept on a 12 h light/dark cycle. Temperature was maintained at 22±2° C., food and water were provided ad libitum.
The design of the study is adapted from Sherlock J P. et al. (Sherlock et al. 2012).
On the first day (D1), the mice underwent a hydrodynamic injection of Ringer or IL-23 EEV in Ringer into the tail vein.
As of D5, twice a week, the mice were scored for clinical symptoms until the end of the experiment.
On D5, blood was collected by puncture in the submandibular vein to assess the serum IL-23 concentration.
On D9, mice from all groups received ProSense® 680 probe (0.8 nmol/10 g, i.p.). On D10, the mice were anesthetized. Granulocyte infiltration was then measured using in vivo molecular imaging (Bruker In-Vivo Xtreme imaging system).
On D11, randomization was performed according to ProSense® 680 molecular imaging and scoring.
As of D12, mice were dosed with test compound or with vehicle.
On D36, mice from all groups were sacrificed 2 h after last administration of compound.
Twice weekly, clinical signs of inflammation were scored: 0 for normal paw; 1 if swelling of one digit; 2 if swelling of two or more digits; 3 if swelling of the entire paw. The scores of all limbs were summed up to produce a global score.
There were 10 mice per group. The results are expressed as mean±SEM and statistical analysis is performed using one-way ANOVA followed by Dunnett's post-hoc test versus diseased vehicle group for scoring and imaging analysis, versus sham vehicle group for body weight.

[1] = system: C57BL/6N mice, bleomycin induced pulmonary fibrosis; assay: Therapeutic bleomycin induced pulmonary fibrosis 21-day mice model; assay type: in vivo; details: mouse, bleomycin 21-day; 10 mg/kg p.o. b.i.d. in PEG200/MC 0.5% 20/80 (v/v); meta-analysis of two pooled identical study runs
Protocol: The aim of the study is to test the efficacy of a test compound at three different doses in a 21-day model of bleomycin induced pulmonary fibrosis in mice.
This study is carried out on C57BL/6N male mice, supplied by Charles River (Calco, Italy), which are acclimatized for at least 5 days in an environment maintained at 22° C., at 55% relative humidity, with 15-20 air changes per hour under light cycles of 12 h. Mice pelleted food and water are provided ad libitum.
The solvent for the test solutions is prepared by adding 0.5 g of hydroxyethylcellulose (Natrosol™) into 500 mL aqua distillate (0.1%) under continuous stirring without heating for 5 h on a magnetic stirrer.
To prepare a solution for intranasal (i.n.) challenge, 0.8 mg/mL stock solutions of bleomycin (Cat #BML-AP302-0010, Enzo Life Sciences, Inc., USA) are thawed and diluted in 330 μL of saline. Prior to i.n. administration, mice are anesthetized i.p.
Finally, test compound solutions are prepared by dissolving the suitable amount of said test compound in PEG 400 or PEG 200 (20% of the final volume) then MC 0.5% (80% of the final volume) to reach final concentrations of 1 mg/mL, 0.3 mg/mL and 0.1 mg/mL, thus yielding compound for a doses of 10 mg/kg, 3 mg/kg and 1 mg/kg. […]
Pulmonary histological changes are assessed using Matsuse modification of Ashcroft score (Ashcroft et al. 1988; Matsuse et al. 1999). […]

## COc1cc(-c2cnc3cc(C(C)(C)C#N)ccn23)cc(OC(F)F)c1C(=O)NC1CC1 [Cpd 19, 4-[7-(1-cyano-1-methyl-ethyl)imidazo[1,2-a]pyridin-3-yl]-N-cyclopropyl-2-(difluoromethoxy)-6-methoxy-benzamide]
B10.RIII mice, IL-23 EEV; 10 mg/kg p.o. b.i.d.
  clinical score compared to diseased vehicle group: statistically significant decrease

## COc1cc(-c2cnc3cc(C4COC4)ccn23)cc(OC(F)F)c1C(=O)NC1CC1 [Cpd 174, N-cyclopropyl-2-(difluoromethoxy)-6-methoxy-4-[7-(oxetan-3-yl)imidazo[1,2-a]pyridin-3-yl]benzamide]
B10.RIII mice, IL-23 EEV; 30 mg/kg p.o. b.i.d.
  clinical score compared to diseased vehicle group: statistically significant decrease

## COc1cc(-c2cnn3cc(C4(N)CCC4)ccc23)cc(OC(F)F)c1C(=O)N[C@@H]1C[C@@H]1F [Cpd 261, 4-[6-(1-aminocyclobutyl)pyrazolo[1,5-a]pyridin-3-yl]-2-(difluoromethoxy)-N-[(1R,2S)-2-fluorocyclopropyl]-6-methoxy-benzamide]
B10.RIII mice, IL-23 EEV; 50 mg/kg p.o. b.i.d.
  clinical score compared to diseased vehicle group: statistically significant decrease

## COc1cc(-c2cnn3cc(C(C)(C)C#N)ccc23)cc(OC(F)F)c1C(=O)N[C@@H]1C[C@@H]1F [Cpd 219, 4-[6-(1-cyano-1-methyl-ethyl)pyrazolo[1,5-a]pyridin-3-yl]-2-(difluoromethoxy)-N-[(1R,2S)-2-fluorocyclopropyl]-6-methoxy-benzamide]
B10.RIII mice, IL-23 EEV; 3 mg/kg p.o. b.i.d.
  clinical score compared to diseased vehicle group: statistically significant decrease
[1]
  Ashcroft score compared to the vehicle group: statistically significant decrease
